The subject of this assay is NL4-3 strain of HIV-1. Briefly: HIV-1 replication inhibition: cyto-protection of MT4 cells infected with NL4-3 virus (CellTiter-Glo viability assay). To be noted: Human immunodeficiency virus 1, NL43, 120 h, concentration leading to 50% of cyto-protection, 5 days incubation. Format: cell-based. In outline: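 MT4 cells were infected with NL4-3 HIV-1 for 2 hours at 37° (moi 0.0001-0.00001), washed, then incubated 5 days at 37° with serially diluted compounds in RPMI at 0.5% DMSO final. Protection of cell viability was read as CellTiter-Glo luminescence.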
(In general: ATP-based viability assays read luminescence as a measure of living cells.)

The values that follow come from patent US9562033B2, “Inhibitors of viral replication, their process of preparation and their therapeutical uses” (LABORATOIRE BIODIM, priority 2012, dated 2017).

`Cc1sc(-c2cccn2C)c(-c2ccc3c(c2)CCCO3)c1C(OC(C)(C)C)C(=O)O` (centres unmarked) [Example 81, 2-(tert-butoxy)-2-[4-(3,4-dihydro-2H-1-benzopyran-6-yl)-2-methyl-5-(1-methyl-1H-pyrrol-2-yl)thiophen-3-yl]acetic acid] gave an EC50 of 2500 nM. This counts as single-digit micromolar.

Turning to `COC1(C)CC=C(c2c(-c3cnc4c(c3)CCCO4)sc(C)c2C(OC(C)(C)C)C(=O)O)CC1` (centres unmarked) [Example 82, 2-(tert-butoxy)-2-[4-(4-methoxy-4-methylcyclohex-1-en-1-yl)-2-methyl-5-{2H,3H,4H-pyrano[2,3-b]pyridin-6-yl}thiophen-3-yl]acetic acid], a half-maximal effect (EC50) was put at 1000 nM.

The compound `Cc1sc(-c2cc(C(F)(F)F)nn2C)c(-c2ccc3c(c2)CCCO3)c1C(OC(C)(C)C)C(=O)O` (centres unmarked) [Example 83, 2-(tert-butoxy)-2-[4-(3,4-dihydro-2H-1-benzopyran-6-yl)-2-methyl-5-[1-methyl-3-(trifluoromethyl)-1H-pyrazol-5-yl]thiophen-3-yl]acetic acid] showed an EC50 of 1700 nM.

With `COc1cc(-c2sc(C)c(C(OC(C)(C)C)C(=O)O)c2-c2ccc3c(c2)CCCO3)ccn1` (centres unmarked) [Example 84, 2-(tert-butoxy)-2-[4-(3,4-dihydro-2H-1-benzopyran-6-yl)-5-(2-methoxy-pyridin-4-yl)-2-methylthiophen-3-yl]acetic acid], the EC50 came to 1500 nM.

Compound `Cc1sc(-n2cccn2)c(-c2ccc3c(c2)CCCO3)c1C(OC(C)(C)C)C(=O)O` (centres unmarked) [Example 85, 2-(tert-butoxy)-2-[4-(3,4-dihydro-2H-1-benzopyran-6-yl)-2-methyl-5-(1H-pyrazol-1-yl)thiophen-3-yl]acetic acid] had an EC50 of 1900 nM.

Take `Cc1sc(-c2ccsn2)c(-c2ccc3c(c2)CCCO3)c1C(OC(C)(C)C)C(=O)O` (centres unmarked) [Example 86, 2-(tert-butoxy)-2-[4-(3,4-dihydro-2H-1-benzopyran-6-yl)-2-methyl-5-(1,2-thiazol-3-yl)thiophen-3-yl]acetic acid]: a half-maximal response (EC50) required 270 nM.

`Cc1sc(-c2cnn(C)c2)c(-c2ccc3c(c2)CCCO3)c1C(OC(C)(C)C)C(=O)O` (centres unmarked) [Example 88, 2-(tert-butoxy)-2-[4-(3,4-dihydro-2H-1-benzopyran-6-yl)-2-methyl-5-(1-methyl-1H-pyrazol-4-yl)thiophen-3-yl]acetic acid] had an EC50 of 1600 nM.

Compound `Cc1csnc1-c1sc(C)c(C(OC(C)(C)C)C(=O)O)c1C1=CCC(C)(C)CC1` (centres unmarked) [Example 89, 2-(tert-butoxy)-2-{2-methyl-4-[4,4-dimethylcyclohex-1-en-1-yl]-5-(4-methylisothiazol-3-yl)thiophen-3-yl}acetic acid] yielded an EC50 of 860 nM.

For orientation: EC50 means the midpoint of the concentration-response curve.
